Data as given in US12129504B2, “Caproate-producing bacterium with multiple substrate utilization capabilities and its applications” (Jiangnan University, priority 2021, dated 2024).

Assays:
[1] = cited from earlier work
[2] = system: Oscillospiraceae sp. LBM10036; experiment: Tolerance of the strain to toxicity of caproic acid: growth (OD600) in liquid mediums with different initial concentrations of caproic acid; type: cell-based
Description: A brewing environment of Strong aroma-type Baijiu is characterized by a low pH, and the lower the pH, the higher the content of free caproic acid in a system. Free caproic acid can cause toxicity to bacterial cells, therefore, the stronger the tolerance of bacterial cells to the toxicity of caproic acid, the more favorable it is for the survival of the bacterial cells in a system. The growth of the Oscillospiraceae sp. LBM10036 was tracked and measured by designing liquid mediums with different initial concentrations of caproic acid.
The medium contains (calculated in g/L): glucose 20.0, yeast powder 10.0, peptone 10.0, dipotassium hydrogen phosphate 1.0, potassium dihydrogen phosphate 0.5, ammonium sulfate 2.0, magnesium sulfate 0.1, and a cosubstrate 5.0, as well as a trace element nutrient solution 0.15-1.0 (mL/L). The cosubstrate is one or both of acetate and butyrate. The trace element nutrient solution contains (calculated in g/L): calcium chloride 10, cobalt chloride 10, zinc sulfate 10, manganese sulfate 10, and ferrous sulfate heptahydrate 15. The pH of the medium is 5.5, and the medium was sterilized at 115° C. for 30 min.
The dissolved medium was divided into 5 blue cap bottles (100 mL), each blue cap bottle containing 100 mL of medium. Before sterilization, the initial concentrations of caproic acid in the mediums were adjusted to 0 g/L, 1 g/L, 2 g/L, 3 g/L, and 4 g/L using a caproic acid standard. At this point, the initial concentrations of free caproic acid in the mediums were 0 g/L, 0.19 g/L, 0.37 g/L, 0.56 g/L, and 0.75 g/L, respectively. The mediums were sterilized at 115° C. for 30 min. After sterilization, the medium of each initial concentration gradient of caproic acid was divided into 3 parts, each part containing 30 mL in a 50 mL centrifuge tube. The residual mediums were taken out of an anaerobic incubator for re-determining the pH and initial concentrations of total caproic acid, and calculating whether the actual concentrations of free caproic acid meet the experimental design.
(1) An Oscillospiraceae sp. LBM10036 frozen glycerol tube was taken out from a −80° C. refrigerator, activated for cultivation for the first generation at 37° C. in the modified Clostridium growth medium prepared in (1) step 1 until the OD600 was 1.5-2.0 to obtain a first generation seed solution, and then the first generation seed solution was transferred to a fresh modified Clostridium growth medium at an inoculum concentration of 5% (v/v) and activated for the second generation cultivation at 37° C. for 12-18 h until the OD600 was 1.5-2.0 to obtain a second generation seed solution.
(2) 100 mL of the modified Clostridium growth medium described in step (1) was inoculated with the second generation seed solution obtained in step (1) at an inoculum concentration of 5% (v/v) and cultivated until the OD value was 1.5-2.0, to obtain a culture solution.
(3) The mediums with different initial concentration gradients of caproic acid prepared in (2) of step 1 were inoculated with the prepared culture solution at an inoculum concentration of 5% (v/v). The medium of each initial concentration gradient of caproic acid had 3 replicates, and sampled from 0 to 72 h at an interval of 12 h. The maximum specific growth rates under different initial concentration gradients of caproic acid were plotted (as shown in FIG. 4).

CCCCCC(=O)O [caproic acid]
pKa [1]: 4.86 | growth of Oscillospiraceae sp. ([2]; caproic acid 4 g/L (free caproic acid 0.75 g/L)): significantly inhibited | concentration of free caproic acid at the maximum tolerable initial concentration ([2]; free caproic acid calculated from pH 5.5 and pKa 4.86): 0.56 g/L | OD600 ([2]; initial caproic acid 1 g/L, 0 h, medium pH 5.5): 0.26 ± 0.00 | OD600 ([2]; initial caproic acid 1 g/L, 12 h, medium pH 5.5): 0.53 ± 0.02 | OD600 ([2]; initial caproic acid 1 g/L, 24 h, medium pH 5.5): 1.96 ± 0.17 | OD600 ([2]; initial caproic acid 1 g/L, 48 h, medium pH 5.5): 2.39 ± 0.20 | OD600 ([2]; initial caproic acid 1 g/L, 72 h, medium pH 5.5): 2.25 ± 0.32 | OD600 ([2]; initial caproic acid 2 g/L, 0 h, medium pH 5.5): 0.27 ± 0.01 | OD600 ([2]; initial caproic acid 2 g/L, 12 h, medium pH 5.5): 0.30 ± 0.02 | OD600 ([2]; initial caproic acid 2 g/L, 24 h, medium pH 5.5): 1.06 ± 0.37 | OD600 ([2]; initial caproic acid 2 g/L, 48 h, medium pH 5.5): 2.00 ± 0.10 | OD600 ([2]; initial caproic acid 2 g/L, 72 h, medium pH 5.5): 1.72 ± 0.17 | OD600 ([2]; initial caproic acid 3 g/L, 0 h, medium pH 5.5): 0.26 ± 0.01 | OD600 ([2]; initial caproic acid 3 g/L, 12 h, medium pH 5.5): 0.69 ± 0.06 | OD600 ([2]; initial caproic acid 3 g/L, 24 h, medium pH 5.5): 0.88 ± 0.07 | OD600 ([2]; initial caproic acid 3 g/L, 48 h, medium pH 5.5): 1.46 ± 0.07 | OD600 ([2]; initial caproic acid 3 g/L, 72 h, medium pH 5.5): 1.44 ± 0.05 | OD600 ([2]; initial caproic acid 4 g/L, 0 h, medium pH 5.5): 0.23 ± 0.01 | OD600 ([2]; initial caproic acid 4 g/L, 12 h, medium pH 5.5): 0.22 ± 0.01 | OD600 ([2]; initial caproic acid 4 g/L, 24 h, medium pH 5.5): 0.20 ± 0.01 | OD600 ([2]; initial caproic acid 4 g/L, 48 h, medium pH 5.5): 0.21 ± 0.04 | OD600 ([2]; initial caproic acid 4 g/L, 72 h, medium pH 5.5): 0.20 ± 0.02 | maximum tolerable initial concentration of caproic acid ([2]; total caproic acid, medium pH 5.5): 3 g/L
